Data reported in BigSolDB 2.1.

COC(=O)c1ccc2cc(C(=O)OC)ccc2c1
Details	solubility (mole fraction)
in DMAc, 299.11 K	0.00345
in DMAc, 315.05 K	0.0072
in DMAc, 320.35 K	0.00895
in DMAc, 326.25 K	0.0112
in DMAc, 330.38 K	0.0129
in DMAc, 337.27 K	0.0167
in DMAc, 342.39 K	0.0202
in DMAc, 352.75 K	0.0301
in DMAc, 358.55 K	0.0377
in DMAc, 364.4 K	0.0452
in DMAc, 370.8 K	0.0573
in DMAc, 376.26 K	0.0674
in DMAc, 381.71 K	0.0814
in DMAc, 383.38 K	0.0855
in DMAc, 387.01 K	0.0963
in DMAc, 391.14 K	0.107
in DMAc, 392.17 K	0.112
in DMF, 303.31 K	0.00253
in DMF, 309.36 K	0.00341
in DMF, 317.9 K	0.00521
in DMF, 329.65 K	0.00884
in DMF, 335.43 K	0.0116
in DMF, 342.21 K	0.015
in DMF, 349.85 K	0.0193
in DMF, 357.96 K	0.0272
in DMF, 362.73 K	0.0323
in DMF, 366.6 K	0.0396
in DMF, 368.38 K	0.0408
in DMF, 373.02 K	0.0495
in DMF, 377.86 K	0.0574
in DMF, 379.66 K	0.0611
in DMF, 382.14 K	0.0661
in DMF, 383.38 K	0.0699
in DMSO, 298.28 K	0.000669
in DMSO, 308.07 K	0.00113
in DMSO, 316.57 K	0.00179
in DMSO, 324.97 K	0.00272
in DMSO, 340.85 K	0.00537
in DMSO, 347.18 K	0.00726
in DMSO, 353.35 K	0.00952
in DMSO, 356.66 K	0.0109
in DMSO, 365.19 K	0.0157
in DMSO, 369.88 K	0.016
in DMSO, 374.65 K	0.0226
in DMSO, 386.85 K	0.0352
in DMSO, 394.81 K	0.0471
in DMSO, 405.07 K	0.069
in NMP, 293.2 K	0.0056
in NMP, 296.73 K	0.00577
in NMP, 300.48 K	0.00606
in NMP, 303.5 K	0.00632
in NMP, 308.77 K	0.00669
in NMP, 311.81 K	0.00687
in NMP, 317.1 K	0.0074
in NMP, 322.89 K	0.00803
in NMP, 328.16 K	0.00864
in NMP, 336.69 K	0.00914
in NMP, 345.34 K	0.0103
in NMP, 354.23 K	0.0115
in NMP, 360.09 K	0.0125
in NMP, 368.69 K	0.0132
in NMP, 375.38 K	0.016
in NMP, 383.36 K	0.0167
in NMP, 393.2 K	0.0195
in NMP, 404.46 K	0.0251
in NMP, 409.92 K	0.0271
in NMP, 414.36 K	0.0299
in NMP, 418.83 K	0.0328
in NMP, 423.7 K	0.0379
in NMP, 425.77 K	0.0399
in acetic acid, 292.49 K	0.00051
in acetic acid, 295.65 K	0.000621
in acetic acid, 300.35 K	0.000804
in acetic acid, 306.86 K	0.00116
in acetic acid, 311.63 K	0.00147
in acetic acid, 316.5 K	0.0019
in acetic acid, 320.65 K	0.00232
in acetic acid, 323 K	0.00254
in acetic acid, 329.15 K	0.00381
in acetic acid, 333.47 K	0.00428
in acetic acid, 337.2 K	0.0051
in acetic acid, 343.3 K	0.00657
in acetic acid, 350.13 K	0.00833
in acetic acid, 357.38 K	0.0113
in acetic acid, 362.8 K	0.0143
in acetic acid, 366.66 K	0.0169
in acetic acid, 372.51 K	0.0217
in acetic acid, 375.64 K	0.0248
in acetic acid, 381.78 K	0.0304
in acetic acid, 385.96 K	0.0352
in acetic acid, 392.47 K	0.046
in acetic acid, 394.71 K	0.0493
in acetic acid, 398.5 K	0.0564
in acetic acid, 400.54 K	0.0607
